The results in this text go back to patent US10925880B2, “Combination of PI3K-inhibitors” (BAYER PHARMA AKTIENGESELLSCHAFT, priority 2016, dated 2021).

What all share (type): cell-based
In one experiment the test system is ESKOL. The experiment in a line: 72-hour cell proliferation assay (Cell Titer Glo). As to conditions: ESKOL (MZL), single agent; for IC50: 72 h. Here is the method:
(§1) Combinations of Copanlisib and ABT-199 or Palbociclib in a Panel Cell Lines Assessed by the Combination Index (CI) of a 72-Hour Cell Proliferation Assay The effect of combinations of the present invention was evaluated using combination index isobologram analysis for in vitro assessment. The efficacy parameter was the effect in a 72-hour cell proliferation assay. Briefly, 3000 cells were plated in 384-well plates with appropriate growth medium. […] Cells were treated for 72 hours followed by assessment of cell viability by means of Cell Titer Glo assay (Promega). Experiments were conducted in duplicates. The mapping IC50 values were calculated. The corresponding component concentrations of copanlisib and ABT-199 or Palbociclib were calculated and used for plotting isobolograms. Effects were analyzed as described by Chou (Pharmacology Reviews 2006) and the combination index was calculated using the formula: Combination Index=[Ax]/A′+[Bx]/B′ [Ax] and [Bx] refer to component A and component B. A′ and B′ refer to the IC50 values of A and B, respectively, as a single agent. […] Cis of 0.9-1.1 were defined as additive effect. Cis greater than 1.1 were defined as antagonistic effects.

For the next experiment, the system named is GRANTA-519. Briefly: 72-hour cell proliferation assay (Cell Titer Glo). As to conditions: GRANTA-519 (MCL), single agent; for IC50: Homo sapiens, 72 h. Here is the method: as §1
The test system of the next experiment is HAIR-M. The experiment in a line: 72-hour cell proliferation assay (Cell Titer Glo). As to conditions: HAIR-M (MZL), single agent; for IC50: 72 h. Here is the method:
as §1

The next experiment deals with HC-1. Briefly: 72-hour cell proliferation assay (Cell Titer Glo). Particulars: HC-1 (MZL), single agent; for IC50: 72 h. Here is the method: as §1
In another experiment the test system is JEKO-1. Briefly: 72-hour cell proliferation assay (Cell Titer Glo). Particulars: JEKO-1 (MCL), single agent; for IC50: Homo sapiens, 72 h. Here is the method: as §1
A further experiment relates to JVM-2. The experiment in a line: 72-hour cell proliferation assay (Cell Titer Glo). Particulars: JVM-2 (MCL), single agent; for IC50: Homo sapiens, 72 h. Here is the method:
as §1

The test system of another experiment is KARPAS-1718. Briefly: 72-hour cell proliferation assay (Cell Titer Glo). As to conditions: KARPAS-1718 (SMZL), single agent; for IC50: 72 h. Here is the method:
as §1

The subject of a further experiment is MAVER-1. The experiment in a line: 72-hour cell proliferation assay (Cell Titer Glo). As to conditions: MAVER-1 (MCL), single agent; for IC50: Homo sapiens, Maver1, 72 h. Here is the method: as §1
The next experiment deals with MINO. The experiment in a line: 72-hour cell proliferation assay (Cell Titer Glo). As to conditions: MINO (MCL), single agent; for IC50: Homo sapiens, 72 h. Here is the method: as §1
Another experiment relates to REC-1. The experiment in a line: 72-hour cell proliferation assay (Cell Titer Glo). As to conditions: REC-1 (MCL), single agent; for IC50: Homo sapiens, Rec1, 72 h. Here is the method: as §1
In a further experiment the test system is SP-49. Briefly: 72-hour cell proliferation assay (Cell Titer Glo). As to conditions: SP-49 (MCL), single agent; for IC50: 72 h. Here is the method: as §1
A further experiment concerns SP-53. The experiment in a line: 72-hour cell proliferation assay (Cell Titer Glo). As to conditions: SP-53 (MCL), single agent; for IC50: 72 h. Here is the method: as §1
The subject of the next experiment is SSK41. The experiment in a line: 72-hour cell proliferation assay (Cell Titer Glo). As to conditions: SSK41 (SMZL), single agent; for IC50: 72 h. Here is the method:
as §1

In another experiment the test system is UPN1. The experiment in a line: 72-hour cell proliferation assay (Cell Titer Glo). Particulars: single agent; for IC50: UPN1 (MCL), 72 h. Here is the method:
as §1

In another experiment the test system is VL51. The experiment in a line: 72-hour cell proliferation assay (Cell Titer Glo). As to conditions: VL51 (SMZL), single agent; for IC50: Homo sapiens, 72 h. Here is the method: as §1
For the next experiment, the system named is Z-138. Briefly: 72-hour cell proliferation assay (Cell Titer Glo). As to conditions: Z-138 (MCL), single agent; for IC50: Homo sapiens, 72 h. Here is the method:
as §1

Experiment [1] deals with Mantle Cell Lymphoma (MCL), Marginal zone lymphoma (MZL) and Splenic marginal zone lymphoma (SMZL) cell lines. Briefly: 72-hour cell proliferation assay, summary over the cell line panel. As to conditions: ten MCL, three MZL and three SMZL cell lines, range over panel. Here is the method:
as §1

Structures can show the parent of a compound that is named as a salt.

`COc1c(OCCCN2CCOCC2)ccc2c1N=C(NC(=O)c1cnc(N)nc1)N1CCN=C21` [copanlisib, 2-amino-N—[7-methoxy-8-(3-morpholin-4-ylpropoxy)-2,3-dihydroimidazo[1,2-c]quinazolin-5-yl]pyrimidine-5-carboxamide dihydrochloride]: the monotherapy anti-proliferative activity entry with ESKOL is given as “strong”; with GRANTA-519, “moderate”; in the experiment with HAIR-M, “very strong”; in the experiment on HC-1, “moderate”; in the experiment with JEKO-1 it was “strong”; in the experiment with JVM-2 it was “strong”. For the same compound, the monotherapy anti-proliferative activity result with KARPAS-1718 is “strong”; with MAVER-1, “moderate”; in the experiment with MINO it was “moderate”; in the experiment with REC-1, “very strong”; with SP-49, “very strong”; in the experiment with SP-53, “very strong”. Also, the monotherapy anti-proliferative activity result in the experiment on SSK41 is listed as “strong”; in the experiment on UPN1 (UPN-1 (MCL)), “strong”; in the experiment on VL51, “strong”; in the experiment with Z-138, “strong”; in [1], “very strong to moderate”. Further, the IC50 turned out to be 0.0988 µM in the experiment on ESKOL; 0.111 µM in the experiment on GRANTA-519; 0.00539 µM with HAIR-M; 0.183 µM with HC-1; 0.0409 µM with JEKO-1; 0.0217 µM with JVM-2. In addition, the IC50 in the experiment with KARPAS-1718 worked out at 0.0151 µM; with MAVER-1, 0.104 µM; in the experiment with MINO, 0.102 µM; in the experiment on REC-1, 0.006 µM; in the experiment with SP-49, 0.0025 µM; in the experiment with SP-53, 0.00143 µM. Besides, the IC50 in the experiment on SSK41 was 0.0508 µM; in the experiment on UPN1, 0.015 µM; in the experiment with VL51, 0.0207 µM; in the experiment with Z-138, 0.0205 µM.

Consider `CC1(C)CCC(CN2CCN(c3ccc(C(=O)NS(=O)(=O)c4ccc(NCC5CCOCC5)c([N+](=O)[O-])c4)c(Oc4cnc5[nH]ccc5c4)c3)CC2)=C(c2ccc(Cl)cc2)C1` [venetoclax, reference compound], for which the IC50 was at least 10 µM in the experiment on ESKOL; 0.0177 µM in the experiment on GRANTA-519; 0.256 µM with HAIR-M; at least 10 µM in the experiment with HC-1; 3.43 µM in the experiment on JEKO-1; 5.74 µM in the experiment with JVM-2. Further, the IC50 in the experiment with KARPAS-1718 was 0.00372 µM; with MAVER-1, 0.00186 µM; in the experiment on MINO it was 0.00128 µM; in the experiment on REC-1, 0.0203 µM; with SP-49 it was 1.72 µM; in the experiment on SP-53, at least 10 µM. For the same compound, the IC50 in the experiment with SSK41 was 6.23 µM; in the experiment with UPN1, at least 10 µM; in the experiment on VL51, 1.49 µM; in the experiment on Z-138 it was 1 µM.

`CC(=O)c1c(C)c2cnc(Nc3ccc(N4CCNCC4)cn3)nc2n(C2CCCC2)c1=O` [palbociclib, reference compound]: the IC50 in the experiment on ESKOL is 2.07 µM; with GRANTA-519, at least 10 µM; with HAIR-M, 1.56 µM; in the experiment on HC-1, 2.3 µM; in the experiment with JEKO-1, 0.404 µM; in the experiment with JVM-2, 5.66 µM. The IC50 in the experiment on KARPAS-1718 came out at 7.65 µM; in the experiment with MAVER-1 it was 0.47 µM; in the experiment with MINO, 0.575 µM; in the experiment on REC-1 it was 4.71 µM; in the experiment with SP-49 it was 0.205 µM; in the experiment with SP-53, 0.0959 µM. The IC50 in the experiment with SSK41 is 2.31 µM; in the experiment on UPN1, 3.4 µM; with VL51 it was at least 10 µM; in the experiment on Z-138 it was 1.29 µM.
